Test: Chemical stability assessed as oxidation mediated drug degradation at room temperature exposed to air by mass spectrometric analysis
Type: physicochemical

- Stability: Unstable
Compound: O=c1[nH]cnc2c(-n3cc(CCN4CCC(c5cc(F)cc(F)c5)CC4)cn3)nccc12

From ChEMBL document CHEMBL3774338 (J Med Chem, 2016)
